Earlier results, collected in patent US11945788B2, “Process for preparing pitolisant hydrochloride and solid-state forms thereof” (Nuray Chemicals Private Limited, priority 2021, dated 2024).

- solubility in cyclohexane (solvent: cyclohexane): practically insoluble
- solubility in ethanol (solvent: ethanol): soluble
- solubility in methylene chloride (solvent: methylene chloride): soluble
- solubility in water (solvent: water): soluble
Compound: Cl.Clc1ccc(CCCOCCCN2CCCCC2)cc1 [Pitolisant hydrochloride, 1-{3-[3-(4-chlorophenyl)propoxy]propyl}piperidine hydrochloride]
